The text below walks through data of patent publication US7307090B2, “Piperidine derivatives useful as modulators of chemokine receptor activity” (AstraZeneca AB, priority 2001, dated 2007).

Each structure is given as a SMILES string.

As a reminder, the melting point is the temperature, or range, at which the solid turns liquid.

Compound `Cc1ccc(S(=O)(=O)NS(=O)(=O)N2CCC(N3CCC(Oc4ccc(Cl)c(Cl)c4)CC3)CC2)cc1.[Na]` came in with a melting point of 242 to 243 °C. Turning to `Cc1c(Cl)ccc(OC2CCN(C3CCN(S(=O)(=O)NC(=O)c4ccccc4)CC3)CC2)c1Cl` [Example 5A, N-Benzoyl-4-(2,4-dichloro-3-methylphenoxy)-[1,4′-bipiperidine)-1′-sulfonamide], the melting point was 223 °C. In turn, `O=C(NC(=O)N1CCC(N2CCC(Oc3ccc(Cl)c(Cl)c3)CC2)CC1)c1ccccc1` [Example 7A, N-Benzoyl-4-(3,4-dichlorophenoxy)-[1,4′-bipiperidine]-1′-carboxamide] returned a melting point of 65 to 80 °C. The same measure for `O=C(NS(=O)(=O)N1CCC(N2CCC(Oc3ccc(Cl)c(Cl)c3)CC2)CC1)c1ccc(Cl)c(Cl)c1` [Example 8A, N-(3,4-Dichlorobenzoyl)-4-(3,4-dichlorophenoxy)-(1,4′-bipiperidine]-1′-sulfonamide]: 166 to 167 °C.

Compound `O=C(NS(=O)(=O)N1CCC(N2CCC(Oc3ccc(Cl)c(Cl)c3)CC2)CC1)c1c[nH]c(=O)c2ccccc12` [Example 11A, 4-(3,4-Dichlorophenoxy)-N-[(1,2-dihydro-1-oxo-4-isoquinolinyl)carbonyl]-[1,4′-bipiperidine]-1′-sulfonamide] yielded a melting point of 200 °C.
